Source: PubChem BioAssay (NCI)
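Assay format: 96-well plates, 48-hour exposure. Here, GI50 denotes the concentration required for 50% inhibition of growth. TGI: total growth inhibition.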

Assays:
Assay in all cases: inhibition of tumour cell growth, NCI panel, 48 h
[1] = system: SF-268 CNS
[2] = system: SK-OV-3 ovarian
[3] = system: HCT-116 colon
[4] = system: UACC-62 melanoma
[5] = system: U251 CNS
[6] = system: SNB-19 CNS
[7] = system: DU-145 prostate
[8] = system: RXF 393 renal
[9] = system: HL-60(TB) leukemia
[10] = system: SK-MEL-5 melanoma
[11] = system: HOP-62 NSCLC
[12] = system: UO-31 renal
[13] = system: NCI-H460 lung
[14] = system: SN12C renal
[15] = system: K-562 leukemia
[16] = system: SK-MEL-28 melanoma
[17] = system: SW-620 colon
[18] = system: ACHN renal
[19] = system: EKVX NSCLC
[20] = system: MCF7 breast
[21] = system: IGROV1 ovarian
[22] = system: KM12 colon
[23] = system: CAKI-1 renal
[24] = system: SF-539 CNS
[25] = system: MOLT-4 leukemia
[26] = system: MALME-3M melanoma
[27] = system: OVCAR-8 ovarian
[28] = system: COLO 205 colon
[29] = system: T-47D breast
[30] = system: 786-0 renal
[31] = system: OVCAR-4 ovarian
[32] = system: PC-3 prostate
[33] = system: MDA-MB-435
[34] = system: BT-549 breast
[35] = system: NCI/ADR-RES ovarian
[36] = system: SNB-75 CNS
[37] = system: NCI-H226 lung
[38] = system: A549 NSCLC
[39] = system: HCT-15 colon
[40] = system: M14 melanoma
[41] = system: MDA-MB-231 breast
[42] = system: NCI-H23 lung
[43] = system: SF-295 CNS
[44] = system: OVCAR-5 ovarian
[45] = system: HOP-92 NSCLC
[46] = system: SK-MEL-2 melanoma
[47] = system: LOX IMVI melanoma
[48] = system: CCRF-CEM leukemia
[49] = system: TK-10 renal
[50] = system: SR leukemia
[51] = system: HT29 colon
[52] = system: OVCAR-3 ovarian
[53] = system: UACC-257 melanoma
[54] = system: NCI-H522 lung
[55] = system: RPMI-8226 leukemia
[56] = system: A498 renal
[57] = system: HS 578T breast

Structure (SMILES): CCC(C)Oc1nc2c(c(=O)n(C)c(=O)n2C)n1C (stereo not given)
- GI50 [1]: > 100 µM
- TGI [1]: > 100 µM
- GI50 [2]: > 100 µM
- TGI [2]: > 100 µM
- GI50 [3]: > 100 µM
- TGI [3]: > 100 µM
- GI50 [4]: > 100 µM
- TGI [4]: > 100 µM
- GI50 [5]: > 100 µM
- TGI [5]: > 100 µM
- GI50 [6]: > 100 µM
- TGI [6]: > 100 µM
- GI50 [7]: > 100 µM
- TGI [7]: > 100 µM
- GI50 [8]: > 100 µM
- TGI [8]: > 100 µM
- GI50 [9]: > 100 µM
- TGI [9]: > 100 µM
- GI50 [10]: > 100 µM
- TGI [10]: > 100 µM
- GI50 [11]: > 100 µM
- TGI [11]: > 100 µM
- GI50 [12]: > 100 µM
- TGI [12]: > 100 µM
- GI50 [13]: > 100 µM
- TGI [13]: > 100 µM
- GI50 [14]: > 100 µM
- TGI [14]: > 100 µM
- GI50 [15]: > 100 µM
- TGI [15]: > 100 µM
- GI50 [16]: > 100 µM
- TGI [16]: > 100 µM
- GI50 [17]: > 100 µM
- TGI [17]: > 100 µM
- GI50 [18]: > 100 µM
- TGI [18]: > 100 µM
- GI50 [19]: > 100 µM
- TGI [19]: > 100 µM
- GI50 [20]: > 100 µM
- TGI [20]: > 100 µM
- GI50 [21]: > 100 µM
- TGI [21]: > 100 µM
- GI50 [22]: > 100 µM
- TGI [22]: > 100 µM
- GI50 [23]: > 100 µM
- TGI [23]: > 100 µM
- GI50 [24]: > 100 µM
- TGI [24]: > 100 µM
- GI50 [25]: > 100 µM
- TGI [25]: > 100 µM
- GI50 [26]: > 100 µM
- TGI [26]: > 100 µM
- GI50 [27]: > 100 µM
- TGI [27]: > 100 µM
- GI50 [28]: > 100 µM
- TGI [28]: > 100 µM
- GI50 [29]: > 100 µM
- TGI [29]: > 100 µM
- GI50 [30]: > 100 µM
- TGI [30]: > 100 µM
- GI50 [31]: > 100 µM
- TGI [31]: > 100 µM
- GI50 [32]: > 100 µM
- TGI [32]: > 100 µM
- GI50 [33]: > 100 µM
- TGI [33]: > 100 µM
- GI50 [34]: > 100 µM
- TGI [34]: > 100 µM
- GI50 [35]: > 100 µM
- TGI [35]: > 100 µM
- GI50 [36]: > 100 µM
- TGI [36]: > 100 µM
- GI50 [37]: > 100 µM
- TGI [37]: > 100 µM
- GI50 [38]: > 100 µM
- TGI [38]: > 100 µM
- GI50 [39]: > 100 µM
- TGI [39]: > 100 µM
- GI50 [40]: > 100 µM
- TGI [40]: > 100 µM
- GI50 [41]: > 100 µM
- TGI [41]: > 100 µM
- GI50 [42]: > 100 µM
- TGI [42]: > 100 µM
- GI50 [43]: > 100 µM
- TGI [43]: > 100 µM
- GI50 [44]: > 100 µM
- TGI [44]: > 100 µM
- GI50 [45]: > 100 µM
- TGI [45]: > 100 µM
- GI50 [46]: > 100 µM
- TGI [46]: > 100 µM
- GI50 [47]: > 100 µM
- TGI [47]: > 100 µM
- GI50 [48]: > 100 µM
- TGI [48]: > 100 µM
- GI50 [49]: > 100 µM
- TGI [49]: > 100 µM
- GI50 [50]: > 100 µM
- TGI [50]: > 100 µM
- GI50 [51]: > 100 µM
- TGI [51]: > 100 µM
- GI50 [52]: > 100 µM
- TGI [52]: > 100 µM
- GI50 [53]: > 100 µM
- TGI [53]: > 100 µM

Structure (SMILES): COc1ccc2c(c1OC)-c1c(c3ccc([N+](=O)[O-])cc3c(=O)n1CCCBr)C2=O
- GI50 [2]: > 100 µM
- TGI [2]: > 100 µM
- GI50 [3]: 19 µM
- TGI [3]: > 100 µM
- GI50 [4]: 18.1 µM
- TGI [4]: 76.1 µM
- GI50 [6]: 69.9 µM
- TGI [6]: > 100 µM
- GI50 [54]: 27.6 µM
- TGI [54]: > 100 µM
- GI50 [10]: 18.1 µM
- TGI [10]: > 100 µM
- GI50 [55]: 25 µM
- TGI [55]: > 100 µM
- GI50 [11]: 21.8 µM
- TGI [11]: 58.5 µM
- GI50 [12]: 35.3 µM
- TGI [12]: > 100 µM
- GI50 [13]: 6.64 µM
- TGI [13]: 68.8 µM
- GI50 [14]: 36.2 µM
- TGI [14]: > 100 µM
- GI50 [56]: > 100 µM
- TGI [56]: > 100 µM
- GI50 [15]: 99.7 µM
- TGI [15]: > 100 µM
- GI50 [17]: 5.59 µM
- TGI [17]: > 100 µM
- GI50 [19]: > 100 µM
- TGI [19]: > 100 µM
- GI50 [20]: 3.66 µM
- TGI [20]: 20.6 µM
- GI50 [22]: > 100 µM
- TGI [22]: > 100 µM
- GI50 [57]: 70.6 µM
- TGI [57]: > 100 µM
- GI50 [23]: 7.31 µM
- TGI [23]: > 100 µM
- GI50 [25]: 18.9 µM
- TGI [25]: 52.7 µM
- GI50 [26]: 79.9 µM
- TGI [26]: > 100 µM
- GI50 [27]: > 100 µM
- TGI [27]: > 100 µM
- GI50 [28]: > 100 µM
- TGI [28]: > 100 µM
- GI50 [29]: 97.3 µM
- TGI [29]: > 100 µM
- GI50 [30]: 21.6 µM
- TGI [30]: 52.1 µM
- GI50 [32]: 18.1 µM
- TGI [32]: > 100 µM
- GI50 [34]: 50.8 µM
- TGI [34]: > 100 µM
- GI50 [35]: 26 µM
- TGI [35]: 98.9 µM
- GI50 [36]: 26.8 µM
- TGI [36]: 60.6 µM
- GI50 [37]: 26.8 µM
- TGI [37]: 84.3 µM
- GI50 [38]: 42.4 µM
- TGI [38]: > 100 µM
- GI50 [40]: 27.2 µM
- TGI [40]: > 100 µM
- GI50 [41]: 55 µM
- TGI [41]: > 100 µM
- GI50 [43]: 28.6 µM
- TGI [43]: > 100 µM
- GI50 [44]: > 100 µM
- TGI [44]: > 100 µM
- GI50 [46]: > 100 µM
- TGI [46]: > 100 µM
- GI50 [47]: 12.7 µM
- TGI [47]: 45.5 µM
- GI50 [48]: 16.9 µM
- TGI [48]: 80.9 µM
- GI50 [49]: > 100 µM
- TGI [49]: > 100 µM
- GI50 [50]: 4.67 µM
- TGI [50]: > 100 µM
- GI50 [52]: > 100 µM
- TGI [52]: > 100 µM
- GI50 [53]: > 100 µM
- TGI [53]: > 100 µM
